# Experimental data: US7122326B2 (Universite Louis Pasteur, priority 2001, dated 2006)
# Entries after “also recorded” stand apart in the source; their conditions may differ. Like-named read-outs stand apart in the source and are kept apart here.
# Assays:
# [1] = system: xanthurenic acid binding site(s); assay: [3H]-XA binding to synaptic membranes, without ions; design: species or system rat; details: for [^3H]-XA binding displacement, screening: screening at 200 μM concentration
# XA transport system = assay: XA transport in differentiated NCB-20 cells; type: cell-based
# Experimental: The cell culture was prepared by using a culture dish of NCB-20 cells at 80% confluence. The culture medium was removed and replaced with 10 ml of DMEM supplemented with 10% FCS. Cells were then detached and suspended by repeated passage of the medium through a 2 mm gauge needle. Cells were then counted in a hemocytometer. The final suspension was adjusted to a cell density of 3.10^4 cells/ml in DMEM medium supplemented with 10% FCS and 1 mM cAMP. Petri dishes were seeded with 2 ml of this suspension and incubated at 37° C. in a moisture-saturated CO2 atmosphere. Cells were used four days after inoculation.
# The culture medium of 4-day NCB-20 cell cultures differentiated in cAMP was replaced by one of the buffer solutions described hereinabove (Krebs with or without Na^+, to respectively evaluate Na^+-dependent active transport and passive transport, which occurs mainly through diffusion) according to the type of experiment planned. Culture dishes were placed in a water bath at 37° C. for 10 minutes. The buffer was then replaced by the same buffer solution containing [^3H]-XA and XA at concentrations ranging from […]. [^3H]-XA was present at very low concentration and served only as a tracer of the cold (non-radiolabelled) XA. After 1 minute of incubation, the solutions were aspirated and the cells washed three times for 10 seconds with 1 ml of the same buffer (Krebs with or without Na^+), kept on ice. Active transport requires energy (ATP) and is markedly slowed at temperatures below 37° C. The washed cell layer was frozen in dishes then, the next day, distilled water was added to obtain a solution of cellular debris containing the intracellular radiolabel ([^3H]-XA). Freezing facilitated homogenization by repeated passage of the solution through a pipette. A 900 μl aliquot was added to scintillation fluid (Rotiszint®, 4 ml). The remainder of the solution was sampled to assay protein by the BCA method (Uptima). The radioactivity measured in the scintillation counter was converted by means of a suitable calibration curve into picomoles of XA taken up by the cells per mg of protein.
# For each incubation time, transport was measured on nine dishes of NCB-20 cells with Na^+ and without Na^+. Ten different time points were studied: 0-10-30 seconds and 1, 2, 3, 5, 8, 10, 12 minutes. Four different experiments were carried out.
# For each XA concentration, XA transport was measured on nine dishes of NCB-20 cells with Na^+ and nine dishes without Na^+. Seven different concentrations were tested: 1-5-12.5-25-50-100-200 μM. Four independent experiments were carried out.
# Four milliliters of scintillator were added to the tubes containing 900 μl of the cell suspension obtained. The control tube contained 900 μl of doubly-distilled water, and the tubes used to measure specific activity contained 10 μl of the radioactive solutions used as reagent during the experiment and 890 μl of doubly-distilled water. The tubes were closed, vortexed and left overnight at 4° C. before being counted in the scintillation counter. This count measures intracellular radioactivity which is directly proportional to the quantity of XA that entered the cell through passive or active transport. To calculate the amount of active transport, passive transport (Krebs without Na^+) is simply subtracted from total transport (Krebs with Na^+).
# Other endogenous molecules which might be transported by the XA transporter were tested. […] The results are shown in the histogram in FIG. 34 as the percentage entering the cells relative to transport in the presence of radiolabelled XA alone (=100%).
# XA release in the PFC = assay: XA release in prefrontal cortex, in vivo microdialysis; design: species or system rat
# Experimental: Male Wistar rats weighing 350–400 g were used for the experiments. Animals were housed individually in plastic cages with a light/dark cycle of 7 a.m./7 p.m. and 7 p.m./7 a.m. Animals had access to food and water ad libitum. Animal experiments were conducted in strict accordance with the requirements of the European Directive of 24 Nov. 1986 (86/609/EEC).
# The experiments were carried out using an L-shaped cannula with a 4 mm tip. A polycarbonate-polyether dialysis membrane (500 μm) with a 20 Kda cutoff was used. The dialysis membrane was inserted in the prefrontal cortex (PFC) while one of the tips of the bipolar stimulation electrode was implanted in the PFC and the other in the VTA. The procedure was performed under ketamine anesthesia.
# The experiments were carried out in conscious animals, 24 to 72 hours after the surgery. The perfusion medium had the following composition: 147 mM NaCl, 1.2 mM CaCl2, 1.2 mM MgCl2, and 4.0 mM KCl, pH 6.5. In the case of stimulations at high potassium concentrations, sodium ion concentrations were lowered to the same value. In the case of stimulations in the absence of calcium ions, 2.0 mM EGTA was added to the dialysis medium. Dialysates were collected at a rate of 2 μl/min, every 5 minutes, and immediately stored in liquid nitrogen up to analysis.
# These two compounds were quantitatively determined by HPLC chromatography with electrochemical detection. The chromatographic system consisted of a 25 cm×4.6 mm Hypersyl C18 column, maintained at constant temperature. The mobile phase was 0.05 M NaH2PO4 buffer+0.1 mM EDTA and 6% methanol. Peaks were identified by comparison with the retention times measured on calibration standard solutions.
# The VTA was stimulated for a period of 10 minutes, with bursts of thirty 0.5-msec pulses for 100 millisec, intensity 100 or 200 μA and at a frequency of 25 Hz.
# [2] = biological target: xanthurenic acid binding site(s); assay: [3H]-XA binding to synaptic membranes in the presence of copper ions; design: species or system rat; details: read-out: EC50 (50% effective concentration) on XA binding; Tris maleate pH 6.5, room temperature, 400 nM [^3H]-XA (+20 μM xanthurenic acid) (FIG. 17)
# [3] = biological target: xanthurenic acid binding site(s); assay: Effect of ions on xanthurenic acid binding to synaptic membranes; design: species or system rat; details: read-out: EC50 of ions on xanthurenic acid binding
# dopaminergic neurons = assay: Residual dopamine content after 6-OHDA lesion; type: in vivo, rat
# rat = assay: Rotations in rats with unilateral 6-OHDA lesions; type: in vivo; details: 6-OHDA-lesioned rats, four weeks after lesion; apomorphine s.c. (0.1 and 1.0 mg/kg)
# [4] = unilateral 6-OHDA lesion of VTA and SNc, ±SEM (n=3)
compound,measurement,setting,value
"Nc1c(O)cccc1C(=O)CC(N)C(=O)O (racemic) [3OH-D,L-kynurenin]","[^3H]-XA binding displacement, screening",[1],None of these compounds caused significant displacement
O=CC[C@@H](O)[C@H](O)[C@H](O)CO [2-deoxyglucose],decrease in XA transport,XA transport system; cellular energy production blocked (FIG. 34),~50%
O=C(O)c1cc(=O)c2ccccc2[nH]1 [kynurenic acid],"[^3H]-XA binding displacement, screening",[1],no displacement of [^3H]-XA from its binding site(s) but rather a potentiation of this binding
same,inhibition of cellular transport of XA,XA transport system; NCB-20 cells (FIG. 34),good inhibitors
veratrine,"XA release in the PFC, % of baseline","XA release in the PFC; 50 μM in the probe for 20 minutes, after 20 minutes",approximately 600%
Nc1ncnc2nc[nH]c12 [adenine],affinity for the xanthurenic acid site / inhibition of tritiated XA binding,[1],showed significant affinity for the xanthurenic acid site and inhibited the binding of tritiated XA
O=C(O)c1ccccn1 [picolinic acid],"[^3H]-XA binding displacement, screening",[1],None of these compounds caused significant displacement
"[Cl][Cu][Cl] [copper ions, CuCl2]",EC50,[2],33.4 µM
same,EC50,"[3]; 50 mM Tris maleate pH 6.5, 0° C., 200 nM [^3H]-XA (FIG. 14)",~100 µM
Nc1ncnc2c1ncn2[C@@H]1O[C@H](COP(=O)(O)OP(=O)(O)OP(=O)(O)O)[C@@H](O)[C@H]1O [adenosine triphosphate],affinity for the xanthurenic acid site / inhibition of tritiated XA binding,[1],showed significant affinity for the xanthurenic acid site and inhibited the binding of tritiated XA
N[C@@H](Cc1c[nH]c2ccccc12)C(=O)O [L-tryptophan],inhibition of cellular transport of XA,XA transport system,good inhibitors; also recorded: inhibit this transport
N[C@@H](Cc1c[nH]c2ccc(O)cc12)C(=O)O [5-hydroxy-L-tryptophan],"[^3H]-XA binding displacement, screening",[1],None of these compounds caused significant displacement
"Br.NCCc1cc(O)c(O)cc1O [6-OHDA, 6-hydroxydopamine hydrobromide]","residual dopamine content, damaged VTA —SNc",dopaminergic neurons; [4],32±31 pmoles/g of wet tissue
same,"residual dopamine content, damaged striatum",dopaminergic neurons; [4],261±123 pmoles/g of wet tissue
same,"change of dopamine content, damaged versus intact striatum","dopaminergic neurons; unilateral 6-OHDA lesion, p=0.0033",−98%
same,"change of dopamine content, damaged versus intact VTA —SNc","dopaminergic neurons; unilateral 6-OHDA lesion, p=0.0157",−95%
Nc1ncnc2c1ncn2[C@@H]1O[C@H](CO)[C@@H](O)[C@H]1O [adenosine],affinity for the xanthurenic acid site / inhibition of tritiated XA binding,[1],showed significant affinity for the xanthurenic acid site and inhibited the binding of tritiated XA
Nc1c(O)cccc1C(=O)O [3-hydroxyanthranilic acid],"[^3H]-XA binding displacement, screening",[1],None of these compounds caused significant displacement
Nc1ccccc1C(=O)C[C@H](N)C(=O)O [L-kynurenin],"[^3H]-XA binding displacement, screening",[1],None of these compounds caused significant displacement
[Cl-].[K+] [KCl],"XA release in the PFC extracellular medium, % of the baseline value","XA release in the PFC; 100 mM KCl in the dialysis probe for 5 minutes, after 40 minutes",250%
N[C@@H](Cc1ccc(O)cc1)C(=O)O [L-tyrosine],inhibition of cellular transport of XA,XA transport system; NCB-20 cells (FIG. 34),good inhibitors
same,inhibition of cellular transport of XA,"XA transport system; NCB-20 cells (FIG. 34), listed as tyrosine",inhibit this transport
"[Cl-].[Cl-].[Zn+2] [zinc ions, ZnCl2]",EC50,[3]; pH 6.5,~500 µM
same,potentiation of XA transport,XA transport system; ions present in the medium (FIG. 34),highly significant potentiation
CN1CCc2cccc3c2[C@H]1Cc1ccc(O)c(O)c1-3 [apomorphine],number of controlateral rotations,rat,130±45 turns/15 minutes
NC1=N[C@H](O)[C@H]2[C@H]3O[C@]4(O)O[C@@H]([C@@H](O)[C@@]2(N1)[C@@H]4O)[C@]3(O)CO [tetrodotoxin],XA release in PFC induced by electrical stimulation of the VTA,"XA release in the PFC; rat, in vivo",completely blocked
Nc1ncnc2c1ncn2[C@@H]1O[C@H](COP(=O)(O)OP(=O)(O)O)[C@@H](O)[C@H]1O [adenosine diphosphate],affinity for the xanthurenic acid site / inhibition of tritiated XA binding,[1],showed significant affinity for the xanthurenic acid site and inhibited the binding of tritiated XA
